Measured values: patent US7435834B2, “2-thia-dibenzoazulenes as inhibitors of tumour necrosis factor production and intermediates for the preparation thereof” (GlaxoSmithKline Istrazivacki Center Zagreb D.O.O., priority 2002, dated 2008)

Tested on: TNF-α and IL-1 secretion
Assay: investigated assays, not specified which (TNF-α/IL-1 secretion in human PBMC and mouse peritoneal macrophages in vitro, LPS-induced TNF-α/IL-1 secretion in mice, writhing assay, LPS-induced shock in mice)
Conditions: assays not named; active means: IC50 20 μM or lower (human PBMC), IC50 10 μM or lower (mouse macrophages), 30% or more TNF-α inhibition at 10 mg/kg, analgetic activity as acetylsalicylic acid or better, survival 40% or more at 30 mg/kg
Description: The inhibitory action of the present compounds upon TNF-α and IL-1 secretion was determined by the following in vitro and in vivo experiments:
Determination of TNF-α and IL-1 Secretion in Human Peripheral Blood Mononuclear Cells in vitro
Human peripheral blood mononuclear cells (PBMC) were prepared from heparinized whole blood after separating PBMC on Ficoll-Paque™Plus (Amersham-Pharmacia). […] The IL-1 level was determined in an assay under the same conditions and with the same number of cells and the same concentration of stimuli stimulus by ELISA procedure (R&D Systems). The percentage of inhibition of TNF-α or IL-1 production was calculated by the equation: % inhibition=[1−(TS−NC)/(PC−NC)]*100. […]
In order to obtain peritoneal macrophages, Balb/C mouse strain males, age 8 to 12 weeks, were injected i.p. with 300 μg of zymosan (SIGMA) dissolved in a phosphate buffer (PBS) in a total volume of 0.1 ml/mouse. […] The TNF-α level in the cell supernatant was determined by ELISA procedure (R&D Systems, Biosource). The IL-1 level was determined in an assay identical to the assay for TNF-α by ELISA procedure (R&D Systems). The percentage of inhibition of TNF-α or IL-1 production was calculated by the equation: % inhibition=[1−(TS−NC)/(PC−NC)]*100. […]

O=Cc1scc2c1-c1ccccc1Sc1ccccc1-2 [Example 14, 2,8-Dithia-dibenzo[e,h]azulene-1-carbaldehyde]
activity in investigated assays: activity in at least two investigated assays
